Measured values published in EP1430879A2, “Arylsulfatase inhibitors in deodorants and antiperspirants” (Henkel Kommanditgesellschaft auf Aktien, priority 2002, dated 2004).

Target: T1, Arylsulfatase (EC 3.1.6.1) aus Aerobacter aerogenes (Klebsiella aerogenes, UniProt P20713)
T1 construct: purchased Sigma S-1629
T1 sequence (P20713 21-464): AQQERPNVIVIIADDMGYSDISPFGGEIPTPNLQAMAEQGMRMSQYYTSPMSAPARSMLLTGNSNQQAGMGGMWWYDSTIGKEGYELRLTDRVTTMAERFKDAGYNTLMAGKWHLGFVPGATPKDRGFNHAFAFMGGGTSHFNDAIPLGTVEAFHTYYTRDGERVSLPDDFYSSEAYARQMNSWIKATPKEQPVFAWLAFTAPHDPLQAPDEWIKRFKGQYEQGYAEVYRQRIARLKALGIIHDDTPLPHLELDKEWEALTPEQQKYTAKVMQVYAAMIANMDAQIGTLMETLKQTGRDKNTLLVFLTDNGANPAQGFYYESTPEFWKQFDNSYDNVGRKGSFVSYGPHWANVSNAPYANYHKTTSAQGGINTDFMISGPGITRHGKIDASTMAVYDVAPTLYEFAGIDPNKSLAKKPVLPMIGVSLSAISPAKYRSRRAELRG
Test: Arylsulfatase enzyme inhibition test (Sigma sulfatase assay S-1629, p-nitrophenyl sulfate substrate, spectrophotometric at 420 nm)
Type: biochemical
Details: raw material as supplied in aqueous solution; 187 mM Tris/HCl pH 7,1, 8 mM pNPS, 0,05 U/ml Arylsulfatase, 37°C
Excerpt: Da die hautrelevante Arylsulfatase nicht zur Verfügung stand, diente eine handelsübliche Arylsulfatase (EC 3.1.6.1) aus Aerobacter aerogenes als Modellenzym, um die Hemmwirkung der erfindungsgemäß verwendeten Inhibitoren zu testen. Die Tests wurden mit dem Sulfatase-Enzymassay Product No. S-1629 von Sigma gemäß den Angaben im Sigma Quality Control Test Procedure-Datenblatt durchgeführt. Als Referenz-Inhibitoren dienten Ascorbinsäure und ATP.
Zur Auswertung wurde die Arylsulfatase-katalysierte Bildung von p-Nitrophenol aus dem Substrat p-Nitrophenylsulfat (pNPS) spektrophotometrisch (λ = 420 nm) verfolgt. Die Reaktionslösungen von 1000 µl, die auf eine Reaktionstemperatur von 37°C temperiert wurden, enthielten 187 mM Tris/HCl (pH 7,1), 8 mM pNPS und eine Startkonzentration von 0,05 U/ml Arylsulfatase. Die Einheit U der Enzymaktivität wurde so definiert, dass 1 U Sulfatase 1,0 µmol pNPS pro Minute bei pH 7,1 und 37°C hydrolysiert. Die Testdurchführung ist auch offenbart bei H.R. Fowler und D. H. Rammler, Biochemistry 3, 230, 1964.
Die Reaktion wurde durch Zugabe des Enzyms gestartet und der Anstieg der Absorption bei λ = 420 nm über 5 Minuten verfolgt. Der lineare Anstieg der Absorption (A) pro Zeiteinheit (t) ist hierbei ein Maß für die Aktivität des Enzyms (ΔA/Δt). Die Aktivität des Enzyms in Abwesenheit eines Inhibitors, (ΔA1/Δt1 ), wurde als Referenz gleich 100% gesetzt. […]

`COc1cc2c(cc1O)CCC(C)(C)O2` [Lipochroman-6, 3,4-Dihydro-7-methoxy-2,2-dimethyl-2H-1-benzopyran-6-ol] was tested, and the “Konzentration mit einer inhibierenden Wirkung von 50 %” value was 0,1 Gew.-% Rohstoff tel quel in wässriger Lösung.
